# Results published in patent US20090062253A1, “HETEROCYCLODIAZEPINE CANNABINOID RECEPTOR MODULATORS FOR TREATMENT OF DISEASE” (KALYPSYS, INC., priority 2007, published 2009).
# Assays:
# Human CB2 = molecular target: T1, Human CB2 (Homo sapiens, UniProt P34972); assay: Human CB2 Radioligand Binding Assay; conditions: membranes from stably transfected CHO CB2 cells; competition with [3H] CP-55,940; read-out: CB2 Ligand Binding Asssay
# T1 construct: expressed in transfected cells; membrane preparation
# Protocol: (§1) This receptor binding filtration assay measures the receptor-ligand interactions of compounds by measuring ability to compete with a radiolabeled control ligand. Reactions were performed in 96 deep-well plate (Costar 3961) with a final volume of 600 ul. Compounds were added to each well either in single point (10 uM final) or dose-response. Compounds were delivered in DMSO or further diluted in incubation buffer to a final assay DMSO concentration of 1%. Incubation buffer (50 mM Tris-HCl pH 7.4, 2.5 mM EGTA, 5 mM MgCl2, 5.0 mg/ml fatty acid free BSA) was added to each well. Following buffer addition, [^3H] CP-55,940 was added. Tritiated CP-55,940 (Perkin Elmer) was used at the Kd determined from prior saturation binding experiments conducted on each lot of membranes. Membrane preparations from stably transfected CHO CB2 cells were added and the reaction was incubated for 90 minutes at 30° C. Unifilter GF/C filtration plates (Perkin Elmer) were pre-wet with 0.05% polyethylenimine. Samples were transferred to Unifilter plates and separation of unbound radioligand was achieved using a vacuum manifold (Millipore). Following thorough washing with 5 ml/well ice-cold wash buffer (50 mM Tris-HCl pH 7.4, 2.5 mM EGTA, 5 mM MgCl2, 0.5 mg/ml fatty acid free BSA), filterplates were dried completely. Betaplate Scint Scintillation cocktail (25 ul, Perkin Elmer) was applied and plates were read using Microbeta Trilux (Wallac). Data analysis was performed in Spotfire. Activity of the positive control (100 nM CP-55,940) was set as 100% efficacy.
# Stable recombinant Human CB2-CHO cell membranes were prepared as follows: Chinese Hamster Ovarian (CHO) cells stably expressing human cannabinoid receptor type 2 were grown to ˜90% confluence in 15×100 mm culture dishes under puromycin selection (5 ug/ml) Cells were harvested from culture flasks using a cell scraper, were washed once with cold phosphate-buffered saline (calcium and magnesium free) and pelleted by centrifugation at 400 g for 5 min at 4° C. Cell pellet was washed once with cold phosphate-buffered saline and centrifuged again at 400×g for 5 min at 4° C. The pellet was suspended in ice-cold lysis buffer (10 mM Tris-HCl, 0.1 mM EDTA, containing […], pH 7.5) and homogenized in a chilled 7 ml glass dounce homogenizer using 50 strokes. The homogenate was centrifuged at 400 g for 15 min at 4° C. The cloudy supernatant was collected and centrifuged at 41000 g for 30 min at 4° C. The resulting pellet was washed with ice-cold sucrose-free lysis buffer and centrifuged again at 41000 g for 30 min at 4° C. The membrane pellet was suspended in sucrose-free storage buffer (10 mm Tris-HCl, 0.1 mM EDTA, pH 7.5) to a concentration of 2-3 mg protein/ml. Aliquots were flash frozen in liquid nitrogen and stored at −80° C. Concentration was determined using Dc protein assay kit (Bio-Rad).
# [1] = molecular target: T2, human cannabinoid receptor type 1 (Homo sapiens, UniProt P21554); assay: Human CB1 Radioligand Binding Assay (basis of selectivity CB2 vs. CB1)
# T2 construct: purchased Perkin Elmer RBHCB1M; host or cells: HEK 293 EBNA cells
# Protocol: as §1
# The CB1 binding assay was performed as described above except that HEK 293 EBNA cells expressing human cannabinoid receptor type 1 (Perkin Elmer cat #RBHCB1M) were used according the manufacturer's instructions. The incubation buffer was composed of 50 mM Tris-HCl pH 7.4, 2.5 mM EDTA, 5 mM MgCl2, 5.0 mg/ml fatty acid free BSA and the wash buffer was composed of 50 mM Tris-HCl pH 7.4, 2.5 mM EDTA, 5 mM MgCl2, 0.5 mg/ml fatty acid free BSA. Activity of the positive control (100 nM CP-55,940) was set as 100% efficacy.
# T1 sequence (P34972 whole entry): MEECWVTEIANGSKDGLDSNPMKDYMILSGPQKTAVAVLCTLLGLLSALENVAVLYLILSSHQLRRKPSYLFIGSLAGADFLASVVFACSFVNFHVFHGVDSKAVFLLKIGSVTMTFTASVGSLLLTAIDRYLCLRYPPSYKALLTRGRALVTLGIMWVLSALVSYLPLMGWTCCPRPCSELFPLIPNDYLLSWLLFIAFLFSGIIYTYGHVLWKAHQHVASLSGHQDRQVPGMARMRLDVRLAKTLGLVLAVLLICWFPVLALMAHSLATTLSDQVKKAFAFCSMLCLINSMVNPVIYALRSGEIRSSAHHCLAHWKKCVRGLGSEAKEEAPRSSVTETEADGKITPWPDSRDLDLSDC
# T2 sequence (P21554 whole entry): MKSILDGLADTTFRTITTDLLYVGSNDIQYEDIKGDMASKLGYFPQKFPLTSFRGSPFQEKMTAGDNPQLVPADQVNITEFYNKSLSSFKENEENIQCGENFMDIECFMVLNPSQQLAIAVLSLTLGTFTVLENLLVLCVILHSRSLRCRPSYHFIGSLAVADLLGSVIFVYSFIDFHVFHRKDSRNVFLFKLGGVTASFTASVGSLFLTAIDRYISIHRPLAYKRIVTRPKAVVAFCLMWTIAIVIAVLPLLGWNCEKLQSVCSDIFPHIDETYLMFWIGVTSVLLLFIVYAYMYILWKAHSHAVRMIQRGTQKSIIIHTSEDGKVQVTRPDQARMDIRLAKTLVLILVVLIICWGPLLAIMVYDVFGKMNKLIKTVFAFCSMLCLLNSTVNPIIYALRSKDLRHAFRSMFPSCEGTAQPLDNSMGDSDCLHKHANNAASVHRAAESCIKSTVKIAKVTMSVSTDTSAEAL
IC50 (radioligand displacement) (Human CB2) [nM],"Selectivity, CB2 vs. CB1 [1]",SMILES
< 1000,+ (+ indicates > 10-fold),"CC(C)(C)c1ccc(C2c3cncn3CCCN2C(=O)Nc2ccc(F)cc2F)cc1 (stereo not drawn) [Example 37, 9-(4-tert-Butylphenyl)-N-(2,4-difluorophenyl)-6,7-dihydro-5H-imidazo[1,5-a][1,4]diazepine-8(9H)-carboxamide]"
> 1000,− (− indicates < 10-fold),"O=C(Nc1ccc(F)cc1F)N1CCCn2cccc2C1Cc1ccccc1 (stereo not drawn) [Example 41, 1-Benzyl-N-(2,4-difluorophenyl)-4,5-dihydro-1H-pyrrolo[1,2-a][1,4]diazepine-2(3H)-carboxamide]"
< 1000,− (− indicates < 10-fold),"CC(C)(C)C1CCC(C2c3cccn3CCCN2C(=O)c2ccc(F)cc2F)CC1 (stereo not drawn) [Example 45, (1-(4-tert-Butylcyclohexyl)-4,5-dihydro-1H-pyrrolo[1,2-a][1,4]diazepin-2(3H)-yl)(2,4-difluorophenyl)methanone]"
> 1000,− (− indicates < 10-fold),"CC(=O)N1CCCn2cccc2C1c1ccc(C(C)(C)C)cc1 (stereo not drawn) [Example 46, 1-(1-(4-tert-Butylphenyl)-4,5-dihydro-1H-pyrrolo[1,2-a][1,4]diazepin-2(3H)-yl)ethanone]"
< 1000,− (− indicates < 10-fold),"CC(C)(C)c1ccc(C2c3nccn3CCCN2C(=O)c2ccc(F)cc2F)cc1 (stereo not drawn) [Example 47, (9-(4-tert-Butylphenyl)-6,7-dihydro-5H-imidazo[1,2-a][1,4]diazepin-8(9H)-yl)(2,4-difluorophenyl)methanone]"
> 1000,− (− indicates < 10-fold),"CC(C)(C)c1ccc(C2c3nccn3CCCN2C(=O)c2ccc(Cl)cc2Cl)cc1 (stereo not drawn) [Example 48, (9-(4-tert-Butylphenyl)-6,7-dihydro-5H-imidazo[1,2-a][1,4]diazepin-8(9H)-yl)(2,4-dichlorophenyl)methanone]"
< 1000,− (− indicates < 10-fold),"CC(C)(C)c1ccc(C2c3cccn3CCCN2C(=O)c2ccc(Cl)cc2Cl)cc1 (stereo not drawn) [Example 49, (1-(4-tert-Butylphenyl)-4,5-dihydro-1H-pyrrolo[1,2-a][1,4]diazepin-2(3H)-yl)(2,4-dichlorophenyl)methanone]"
< 1000,− (− indicates < 10-fold),"CC(C)(C)c1ccc(C2c3cccn3CCCN2C(=O)Cc2ccc(F)cc2)cc1 (stereo not drawn) [Example 50, 1-(1-(4-tert-Butylphenyl)-4,5-dihydro-1H-pyrrolo[1,2-a][1,4]diazepin-2(3H)-yl)-2-(4-fluorophenyl)ethanone]"

# More lines, now with the values behind:
SMILES,IC50 (radioligand displacement) (Human CB2) [nM],"Selectivity, CB2 vs. CB1 [1]"
"O=C(Nc1ccc(Cl)cc1Cl)N1CCCn2cccc2C1Cc1ccccc1 (stereo not drawn) [Example 21, 1-Benzyl-N-(2,4-dichlorophenyl)-4,5-dihydro-1H-pyrrolo[1,2-a][1,4]diazepine-2(3H)-carboxamide]",> 1000,− (− indicates < 10-fold)
"CC(C)(C)c1ccc(CC2c3cccn3CCCN2C(=O)Nc2ccc(F)cc2F)cc1 (stereo not drawn) [Example 23, 1-(4-tert-Butylbenzyl)-N-(2,4-difluorophenyl)-4,5-dihydro-1H-pyrrolo[1,2-a][1,4]diazepine-2(3H)-carboxamide]",< 1000,+ (+ indicates > 10-fold)
"CC(C)(C)c1ccc(CC2c3cccn3CCCN2C(=O)Nc2ccc(Cl)cc2Cl)cc1 (stereo not drawn) [Example 24, 1-(4-tert-Butylbenzyl)-N-(2,4-dichlorophenyl)-4,5-dihydro-1H-pyrrolo[1,2-a][1,4]diazepine-2(3H)-carboxamide]",< 1000,− (− indicates < 10-fold)
"CC(C)(C)c1ccc(C2c3ccnn3CCCN2C(=O)Nc2ccc(Cl)cc2Cl)cc1 (stereo not drawn) [Example 25, 4-(4-tert-Butylphenyl)-N-(2,4-dichlorophenyl)-7,8-dihydro-4H-pyrazolo [1,5-a][1,4]diazepine-5(6H)-carboxamide]",< 1000,+ (+ indicates > 10-fold)
"CC(C)(C)c1ccc(C2c3nccn3CCCN2C(=O)Nc2ccc(F)cc2F)cc1 (stereo not drawn) [Example 27, 9-(4-tert-Butylphenyl)-N-(2,4-difluorophenyl)-6,7-dihydro-5H-imidazo [1,2-a][1,4]diazepine-8(9H)-carboxamide]",< 1000,+ (+ indicates > 10-fold)
"CC(C)(C)c1ccc(C2c3nccn3CCCN2C(=O)Nc2ccc(F)c(F)c2)cc1 (stereo not drawn) [Example 28, 9-(4-tert-Butylphenyl)-N-(3,4-difluorophenyl)-6,7-dihydro-5H-imidazo[1,2-a][1,4]diazepine-8(9H)-carboxamide]",< 1000,+ (+ indicates > 10-fold)
"CC(C)(C)c1ccc(C2c3nccn3CCCN2C(=O)Nc2ccc(Cl)cc2Cl)cc1 (stereo not drawn) [Example 29, 9-(4-tert-Butylphenyl)-N-(2,4-dichlorophenyl)-6,7-dihydro-5H-imidazo[1,2-a][1,4]diazepine-8(9H)-carboxamide]",> 1000,− (− indicates < 10-fold)
"CC(C)(C)c1ccc(C2c3cncn3CCCN2C(=O)Nc2ccc(Cl)cc2Cl)cc1 (stereo not drawn) [Example 31, 9-(4-tert-Butylphenyl)-N-(2,4-dichlorophenyl)-6,7-dihydro-5H-imidazo[1,5-a][1,4]diazepine-8(9H)-carboxamide]",< 1000,+ (+ indicates > 10-fold)
"CC(C)(C)C1CCC(C2NCCCn3cccc32)CC1 (stereo not drawn) [Example 32, 1-(4-tert-Butylcyclohexyl)-2,3,4,5-tetrahydro-1H-pyrrolo[1,2-a][1,4]diazepine]",> 1000,+ (+ indicates > 10-fold)
"CC(C)(C)C1CCC(C2c3cccn3CCCN2C(=O)Nc2ccc(F)c(F)c2)CC1 (stereo not drawn) [Example 33, 1-(4-tert-Butylcyclohexyl)-N-(3,4-difluorophenyl)-4,5-dihydro-1H-pyrrolo[1,2-a][1,4]diazepine-2(3H)-carboxamide]",< 1000,− (− indicates < 10-fold)
"CC(C)(C)C1CCC(C2c3cccn3CCCN2C(=O)Nc2ccc(F)cc2F)CC1 (stereo not drawn) [Example 34, 1-(4-tert-Butylcyclohexyl)-N-(2,4-difluorophenyl)-4,5-dihydro-1H-pyrrolo[1,2-a][1,4]diazepine-2(3H)-carboxamide]",< 1000,+ (+ indicates > 10-fold)
"CC(C)(C)C1CCC(C2c3cccn3CCCN2C(=O)Nc2ccc(Cl)cc2Cl)CC1 (stereo not drawn) [Example 35, 1-(4-tert-Butylcyclohexyl)-N-(2,4-dichlorophenyl)-4,5-dihydro-1H-pyrrolo[1,2-a][1,4]diazepine-2(3H)-carboxamide]",< 1000,− (− indicates < 10-fold)
"CC(C)(C)c1ccc(C2c3ccnn3CCCN2C(=O)Nc2ccc(F)cc2F)cc1 (stereo not drawn) [Example 36, 4-(4-tert-Butylphenyl)-N-(2,4-difluorophenyl)-7,8-dihydro-4H-pyrazolo[1,5-a][1,4]diazepine-5(6H)-carboxamide]",< 1000,+ (+ indicates > 10-fold)
